# Where two headings read alike, the source gives them in different places.
# Key:
# rat α3β4 receptors = target: T1, rat α3β4 receptors (Rattus norvegicus, UniProt P04757+P12392); test: [3H]epibatidine competition binding on membranes of HEK cells transfected with rat α3β4 receptors
# T1 construct: expressed in transfected cells; host or cells: HEK cells (KXα3β4R2)
# rat α4β2 receptors = target: T2, rat α4β2 receptors (Rattus norvegicus, UniProt P09483+P12390); test: [3H]epibatidine competition binding on membranes of HEK cells transfected with rat α4β2 receptors
# T2 construct: expressed in transfected cells; host or cells: HEK cells (KXα4β2R2)
# [1] = competition with 0.3 nM [3H]epibatidine, KXα3β4R2 HEK cell membranes, 3 h room temperature, read-out: Binding affinities α3β4 (Ki)
# [2] = competition with 0.3 nM [3H]epibatidine, KXα4β2R2 HEK cell membranes, 3 h room temperature, read-out: Binding affinities α4β2 (Ki)
# [3] = read-out: Binding affinities α3β4 (Ki)
# [4] = read-out: Binding affinities α4β2 (Ki)
SMILES,Ki (rat α3β4 receptors; [1]),Ki (rat α4β2 receptors; [2]),Ki (rat α3β4 receptors; [3]),Ki (rat α4β2 receptors),Ki (rat α4β2 receptors; [4]),further results
CN1C2C=C(c3cnc4ccccc4c3)CC1CCC2 (stereo not shown) [SR 17027],2610 nM,423 nM,,,,
CN1C2C=C(c3cccnc3)CC1CCC2 (stereo not shown) [SR 17026],,,240 nM,10 nM,,
CN1C2CCCC1CC(N1C(=O)Cc3ccccc31)C2 (stereo not shown) [SR 16584],,,,> 10000 nM,,
CN1C2CCC1CC(N1C(=O)Cc3ccccc31)C2 (stereo not shown) [SR 16583],2790 nM,,,> 10000 nM,,
CCOC(=O)N1C2C=C(c3cccnc3)CC1CCC2 (stereo not shown) [SR 17021],,,> 10000 nM,,> 10000 nM,
CN1C2CCCC1CC(Nc1ccccc1)C2 (stereo not shown) [SR 17011],,,826 nM,,> 10000 nM,
O=C1Cc2ccccc2N1C1CC2CCCC(C1)N2 (stereo not shown) [SR 16832],421 nM,,,> 10000 nM,,
"O=c1cccc2n1C[C@@H]1CNC[C@H]2C1 [Cytisine, reference compound]",203 nM,1.53 nM,,,,
C1=C(c2cccnc2)CC2CC1CN2Cc1ccccc1 (stereo not shown) [SR 17004],,,,,1.95 nM,Ki (rat α3β4 receptors): 194 nM
C1=C(c2cnc3ccccc3c2)CC2CC1N(Cc1ccccc1)C2 (stereo not shown) [SR 17015],2480 nM,29 nM,,,,
